According to PMC3577712 (PLoS ONE, 2013):

Tests used:
[1] = system: Influenza A/TW/70066/09 (H1N1); test: microbe, parasite or virus in culture; assay type: cell-based; conditions: H1N1, read-out: EC50, viral plaque reduction assay
[2] = system: Influenza A/TW/70058/09 (H1N1); test: microbe, parasite or virus in culture; assay type: cell-based; conditions: H1N1, read-out: EC50, viral plaque reduction assay

SMILES: Nc1c(S(=O)(=O)O)cc(Nc2cccc(S(=O)(=O)CCOS(=O)(=O)O)c2)c2c1C(=O)c1ccccc1C2=O [RB19, Remazol Brilliant Blue R]
- EC50 [1]: 11.9 µM
- EC50 [2]: 9.8 µM
